From patent publication US8618158B2, “Therapeutic agents” (Cancer Research Technology Limited, priority 2008, dated 2013)
Read-outs that look alike come from different tables or passages of the source.

Assays:
SJSA-1 cell line [1] = test: Western blot of MDM2, p53 and p21 levels in SJSA-1 cells; format: cell-based; conditions: for levels of p53, p21 and MDM2 protein (FIG. 1): MDM2 amplified SJSA-1 cells, 1-20 μM
Description: The medium was then aspirated and the dishes were washed with 3 mL of cold PBS.
The samples were then loaded onto a precast 4-20% gradient polyacrylamide Tris-Glycine gels (15 wells, 1.5 mm thickness, Invitrogen Life Technologies), along with a pre-stained marker protein (SeeBlue, Invitrogen). The Gels were processed in Novex XCell (Invitrogen) at 180V and blotted onto a High Bond C membrane (Amersham Life Science) overnight at 30V.
The membrane was then blocked for one hour at room temperature in TBS-Tween containing 5% non-fat milk (TBST-M) followed by incubation with primary antibodies for MDM2 (MDM2-Ab 1, 1:500, Oncogene), p53 (p53-D07, 1:1000, Novacastra), p21 (p21 Ab1, 1:100, Oncogene) and Actin (Actin AC40, 1:1000, Sigma) in PBST-M for 1 hour.
The membrane was then washed three times in TBST (15 minutes per wash) and then incubated for an additional 1 hour with a anti mouse or a rabbit horseradish peroxidase (HRP) secondary antibody (Dako, 1:1000) in PBST-M followed by a final wash consisting of six washes with TBST at 5 minutes per wash.

[2] = tested on: wild-type p53 HCT116 cells; test: Growth inhibition in p53 wild-type HCT116 cells; format: cell-based
p53−/− HCT116 cells = test: Growth inhibition in p53−/− HCT116 cells; format: cell-based; conditions: comparison of p53 wt and p53−/− HCT116
[3] = tested on: p53-dependent transcriptional activity; test: Luciferase based p53-dependent reporter gene assay; format: cell-based
MDM2-p53 interaction = MDM2-p53 interaction (Homo sapiens (Human), UniProt Q00987); test: MDM2-p53 ELISA binding assay
MDM2-p53 interaction, sequence (Q00987 whole entry): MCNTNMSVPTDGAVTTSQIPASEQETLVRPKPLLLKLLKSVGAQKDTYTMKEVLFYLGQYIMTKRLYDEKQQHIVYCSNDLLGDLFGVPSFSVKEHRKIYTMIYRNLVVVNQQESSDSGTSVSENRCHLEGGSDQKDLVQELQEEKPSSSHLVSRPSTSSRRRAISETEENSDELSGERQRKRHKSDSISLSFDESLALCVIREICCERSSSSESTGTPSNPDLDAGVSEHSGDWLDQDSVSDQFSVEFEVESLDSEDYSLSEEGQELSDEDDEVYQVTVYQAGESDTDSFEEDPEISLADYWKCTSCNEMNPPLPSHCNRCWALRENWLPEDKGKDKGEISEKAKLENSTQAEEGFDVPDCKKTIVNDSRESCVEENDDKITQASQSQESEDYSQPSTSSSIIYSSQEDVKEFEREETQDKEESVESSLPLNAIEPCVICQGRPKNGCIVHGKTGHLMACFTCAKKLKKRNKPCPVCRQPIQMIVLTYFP
Description: Streptavidin-coated 96-well plates are used to immobilise a biotin-tagged IP3 p53-derived peptide ([…]). This is a peptide analogue derived from the p53 binding site for MDM2 ([…]). […] Aliquots of MDM2 generated by in vitro translation are pre-incubated for 20 minutes at room temperature (i.e. 20-25° C.) with test compounds and controls, before transfer into the IP3-coated 96-well plates.
3-(4-Chloro-phenyl)-3-(4-hydroxy-3,5-dimethoxy-benzyloxy)-2-propyl-2,3-dihydro-isoindolin-1-one (NU8231) is currently included as a standard “lead compound” positive control. […] The AP peptide is included as a positive control for biological evaluation of the isoindolinones in the cell free binding assays.
All compounds are dissolved in DMSO and tested at a range of concentrations in the presence of a fixed final concentration of 5% DMSO.

SJSA-1 cell line [4] = test: Western blot of PARP and caspase-3 cleavage in SJSA-1 cells; format: cell-based; conditions: SJSA-1, after 48 hours of treatment, in comparison to nutlin-3
[5] = Table 1, mean ± SE of n = 3 unless indicated, read-out: ELISA IC50
[6] = Table 5, read-out: MDM2-p53 ELISA IC50
[7] = Table 2, mean ± SE of n = 3 unless indicated, read-out: ELISA IC50

`COc1ccc(C2=NC(c3ccc(Cl)cc3)C(c3ccc(Cl)cc3)N2C(=O)N2CCNC(=O)C2)c(OC(C)C)c1` (racemic) [Nutlin-3, (±)-4-[4,5-bis-(4-Chlorophenyl)-2-(2-isopropoxy-4-methoxyphenyl)-4,5-dihydroimidazole-1-carbonyl]-piperazin-2-one] was tested. Which “MDM2, p53 and p21 levels by Western blotting (FIG. 12)” value (SJSA-1 cell line [1]; SJSA-1 cells, 1 to 20 μM) did it give?
The value was “strong dose dependent increase in MDM2, p53 and p21 levels”.

And the “growth inhibition (FIGS. 5 and 6)” value [2]?
Its value is “growth inhibitory”.

What about the “growth inhibition p53 wt versus p53−/− HCT116 (FIGS. 5 and 6)” value (p53−/− HCT116 cells) of the same compound?
Its value is “greater growth inhibition in the p53 wt HCT116 cell line than the p53−/− HCT116 cells”.

Which results are given for `O=C1c2ccccc2C(OC2C=C[C@@H](O)C2)(c2ccc(Cl)cc2)N1Cc1ccc(Cl)cc1` (stereo in doubt) [NU8293, 3-(4-Chlorophenyl)-3-(4-hydroxycyclopent-2-enyloxy)-2-(4-chlorobenzyl) isoindolin-1-one]?
levels of p53, p21 and MDM2 protein (FIG. 1) (SJSA-1 cell line [1]): induction of increased levels of p53, p21 and MDM2 protein; p53 dependent transcriptional activity (FIG. 3) [3]: activation of p53 dependent transcriptional activity; IC50 (MDM2-p53 interaction; [5]): 1500 ± 300 nM

`Cc1ccc(CN2C(=O)c3ccccc3C2(O[C@H]2C=C[C@@H](O)C2)c2ccc(Cl)cc2)cc1` (stereo in doubt) [NU8295, 3-(4-Chlorophenyl)-3-(4-hydroxycyclopent-2-enyloxy)-2-(4-methylbenzyl) isoindolin-1-one] was tested. Which “levels of p53, p21 and MDM2 protein (FIG. 1)” value (SJSA-1 cell line [1]) did it give?
Its value is “induction of increased levels of p53, p21 and MDM2 protein”.

What about the IC50 (MDM2-p53 interaction; [5]) of the same compound?
Its IC50 is 1400 ± 400 nM.

Which results are given for `O=C1c2ccccc2C(O[C@H]2C=C[C@@H](O)C2)(c2ccc(Cl)cc2)N1Cc1ccc([N+](=O)[O-])cc1` (stereo in doubt) [NU8297, 3-(4-Chlorophenyl)-3-(4-hydroxycyclopent-2-enyloxy)-2-(4-nitrobenzyl) isoindolin-1-one]?
levels of p53, p21 and MDM2 protein (FIG. 1) (SJSA-1 cell line [1]): did not show any evidence of activity; p53 dependent transcriptional activity (FIG. 3) [3]: activation of p53 dependent transcriptional activity

With `O=C1c2ccccc2C(O[C@H]2C=C[C@@H](O)C2)(c2ccc(Cl)cc2)N1Cc1ccccc1` (stereo in doubt) [NU8298, 2-Benzyl-3-(4-chlorophenyl)-3-(4-hydroxycyclopent-2-enyloxy) isoindolin-1-one] as the compound, how does the IC50 (MDM2-p53 interaction; [5]) read?
Its IC50 is 2300 ± 300 nM.

Which IC50 (MDM2-p53 interaction; [6]) does the source give for `O=C1c2ccccc2C(OCC2(CO)CC2)(c2ccc(Cl)cc2)N1Cc1ccc(I)cc1` (stereo not drawn) [NCL-00014529, 3-(4-chlorophenyl)-3-(1-hydroxymethylcyclopropylmethoxy)-2-(4-iodobenzyl)-2,3-dihydroisoindol-1-one] here?
Its IC50 is 1500 nM.

For `O=C1c2ccccc2C(O)(c2ccc(Cl)cc2)N1Cc1cccc2ccccc12` (stereo not drawn) [NCL-00016046, 3-(4-chlorophenyl)-3-hydroxy-2-naphthalen-1-ylmethyl-2,3-dihydroisoindol-1-one], which IC50 (MDM2-p53 interaction; [6]) is on record?
Its IC50 is 96000 nM.

How did the IC50 (MDM2-p53 interaction; [6]) turn out when `O=C1c2ccccc2C(O)(c2ccc(F)cc2)N1Cc1ccc([N+](=O)[O-])cc1` (stereo not drawn) [NCL-00016657, 3-(4-fluorophenyl)-3-hydroxy-2-(4-nitrobenzyl)-2,3-dihydroisoindol-1-one] was run?
The IC50 was 9460 nM.

With `O=C1c2ccccc2C(O[C@H]2CC[C@@H](O)C2)(c2ccc(Cl)cc2)N1Cc1ccc([N+](=O)[O-])cc1` (stereo partly drawn) [NU8296, 3-(4-chlorophenyl)-3-((1S,3R)-3-hydroxycyclopentyloxy)-2-(4-nitrobenzyl)isoindolin-1-one] as the compound, how does the “p53 dependent transcriptional activity (FIG. 3)” value [3] read?
Its value is “activation of p53 dependent transcriptional activity”.

And the “PARP and caspase-3 cleavage (FIG. 4)” value (SJSA-1 cell line [4])?
The value was “comparable to those observed with nutlin-3”.

Which IC50 (MDM2-p53 interaction; [7]) does the source give for `O=C1c2ccccc2C(OC/C=C\CO)(c2ccc(Cl)cc2)N1Cc1ccc([N+](=O)[O-])cc1` (stereo not drawn) [NU8350, 3-(4-Chlorophenyl)-3-(4-hydroxybut-2-enyloxy)-2-(4-nitrobenzyl)-2,3-dihydroisoindol-1-one] here?
The IC50 was 402 ± 9 nM.

`O=C1c2ccccc2C(OCC=CCO)(c2ccc(Cl)cc2)N1Cc1ccc([N+](=O)[O-])cc1` (stereo not drawn) [NU8351, 3-(4-Chlorophenyl)-3-(4-hydroxybut-2-enyloxy)-2-(4-nitrobenzyl)-2,3-dihydroisoindol-1-one] was tested. Which IC50 (MDM2-p53 interaction; [7]) did it give?
The IC50 was 405 ± 10 nM.

Which IC50 (MDM2-p53 interaction; [7]) does the source give for `CC(C)(CO)COC1(c2ccc(Cl)cc2)c2ccccc2C(=O)N1Cc1ccc([N+](=O)[O-])cc1` (stereo not drawn) [NU8353, 3-(4-Chloro-phenyl)-3-(3-hydroxy-2,2-dimethyl-propoxy)-2-(4-nitro-benzyl)-2,3-dihydro-isoindol-1-one] here?
Its IC50 is 395 ± 75 nM.

Which IC50 (MDM2-p53 interaction; [7]) does the source give for `O=C1c2ccccc2C(OC[C@H]2CC[C@H](CO)CC2)(c2ccc(Cl)cc2)N1Cc1ccc([N+](=O)[O-])cc1` (stereo partly drawn) [NU8358, 3-(4-Chlorophenyl)-3-(4-hydroxymethylcyclohexylmethoxy)-2-(4-nitrobenzyl)-2,3-dihydroisoindol-1-one] here?
Its IC50 is 582 ± 75 nM.

How did the IC50 (MDM2-p53 interaction; [5]) turn out when `O=C1c2ccccc2C(OCCCCO)(c2ccc(Cl)cc2)N1CCc1ccc([N+](=O)[O-])cc1` (stereo not drawn) [NU8362, 3-(4-Chlorophenyl)-3-(4-hydroxybutoxy)-2-[2-(4-nitrophenyl)ethyl]-2,3-dihydroisoindol-1-one] was run?
Its IC50 is 3200 ± 1000 nM.

For `O=C1c2ccccc2C(OCCCCO)(c2ccc(Br)cc2)N1Cc1ccc([N+](=O)[O-])cc1` (stereo not drawn) [NU8390, 3-(4-bromophenyl)-3-(4-hydroxybutoxy)-2-(4-nitrobenzyl)isoindolin-1-one], which IC50 (MDM2-p53 interaction; Table 3, read-out: MDM2 IC50) is on record?
Its IC50 is 570 ± 59 nM.

`O=C1c2ccccc2C(OCCCO)(c2ccc(Br)cc2)N1Cc1ccc([N+](=O)[O-])cc1` (stereo not drawn) [NU8392, 3-(4-bromophenyl)-3-(3-hydroxypropoxy)-2-(4-nitrobenzyl)isoindolin-1-one] was tested. Which IC50 (MDM2-p53 interaction; Table 3, read-out: MDM2 IC50) did it give?
Its IC50 is 1400 ± 160 nM.

For `O=C1c2ccccc2C(OCC2(CO)CC2)(c2ccc(Cl)cc2)N1Cc1ccc(Cl)cc1` (stereo not drawn) [NU8416, 2-(4-chlorobenzyl)-3-(4-chlorophenyl)-3-((1-(hydroxymethyl)cyclopropyl)methoxy)isoindolin-1-one], which IC50 (MDM2-p53 interaction; Table 4, read-out: MDM2 IC50) is on record?
Its IC50 is 2310 ± 560 nM.
